Experimental data as given in patent US6489449B2, “Peptides for inhibition of HIV infection” (priority 2000, dated 2002).
Where no end group is shown, it is not given here.

Test: Secondary structure analysis by circular dichroism (helical content)
Type: physicochemical
Settings: for Helical content (%) 30% TFE: PBS containing 30% trifluoroethanol, 50 μM peptide; for Helical content (%) PBS: PBS pH 7.0, 50 μM peptide
Experimental: The secondary structures of peptides synthesized in the above Example were analyzed by means of circular dichroism and the circular dichroism spectra of synthesized peptides were analyzed by using 715 CD spectropolarimeter (Jasco Co., Ltd., JAPAN). The peptides of WT(SEQ ID NO. 4), MT(SEQ ID NO. 5), Ncap-MT(SEQ ID NO. 7), Caps-WT(SEQ ID NO. 8), Caps-MT(SEQ ID NO. 9) were dissolved in PBS(pH 7.0) with 100 mM sodium phosphate and 150 mM NaCl to make the final concentration of each peptide 50 μM and were placed for spectrum analyses.
(2)Analyses of Secondary Structures of Peptides in Phosphate Buffered Saline (PBS) containing Trifluoroethanol Experiments were performed the same as described in the above Experimental Example 1 (1) with the exception that the PBS contained 30% trifluoroethanol.

| Substance | Helical content (%) 30% TFE | Helical content (%) PBS |
| --- | --- | --- |
| APKEWMAWAREIAAYAKLIAALI-NH2 [Ncap-MT, APKEWMaWaREIaaYakLIaaLI] | 68% | 69% |
| APKEWMEWDREINNYTSLIHSLIKQGI-NH2 [Caps-WT] | 77% | 21% |
| WMEWDREINNYTSLIHSLI [WT] | 24% | 18% |
